Entries after “also recorded” stand apart in the source; their conditions may differ. Read-outs that look alike come from different tables or passages of the source. Square brackets hold non-standard residues; d marks the D form. Peptide text beside a SMILES is read from it. * marks the point of attachment. Nva = CCC[C@H](N)C(=O)O; Cbz = O=C(OCc1ccccc1)*
Assays:
[1] = test system: proteases in rabbit reticulocyte extract; details: extract pre-treated with inhibitor, then R6; MALDI
Method: In this experiment, protease inhibitors were tested to inhibit the degradation of the peptide R6 (described above). In one experiment, 10 μL of rabbit reticulocyte extract was pre-treated by incubating with a specific protease inhibitor such as ebelactone or 2-LeuLeuNVa-CHO for 10-15 min. Following pretreatment, peptide R6 was added to above translation mix and incubated for 10 min at 30° C. The reaction was terminated by addition of 100 μL of 100 mM EDTA and the solution was immediately applied to the microcolumn containing 1 μL of Sigma ANTI-FLAG beads. The beads were then washed with 50 μL of 20 mM Tris-HCl, pH 7.2 and the bound peptide was eluted with approximately 4 μL of matrix solution (CHCA/acetonitrile/TFA) directly onto a MALDI plate. In the control experiment, extract pre-treated with buffer was used and processed as described above.
2 μL of the above protease inhibitor solution was added to 10 μL of the translation mixture.

[2] = test system: proteolysis in PURE I reconstituted E. coli translation system; format: biochemical
protein synthesis = assay: Effect of protease inhibitors on protein synthesis in the translation system; format: biochemical
[3] = zonally purified E. coli ribosomes
[4] = rabbit reticulocyte lysate (RRL extract); details: 30° C., up to 5 min
[5] = Solution B of the PURE kit (Post-Genome Institute); details: 37 degrees, up to 20 minutes (or 10 minutes)
[6] = PURE I reconstituted E. coli translation system, all components except the DNA; details: 37° C., up to 15 min
[7] = test system: protein synthesis in rabbit reticulocyte lysate; format: biochemical
[8] = heat denatured rabbit reticulocyte extract (by boiling at 100° C. for 5 min in presence of SDS); details: 30° C.
[9] = test system: protease activity of E. coli translation extract; assay: Mass spectrometry assay of inhibition of R6 degradation in E. coli translation extract; details: extract pre-treated with inhibitor, then R6; MALDI
Method: In this experiment, protease inhibitors were tested to inhibit the degradation of the peptide R6 (described above). […] Following pretreatment, peptide R6 was added to above translation mix and incubated for 10 min at 30° C. The reaction was terminated by addition of 100 μL of 100 mM EDTA and the solution was immediately applied to the microcolumn containing 1 μL of Sigma ANTI-FLAG beads. The beads were then washed with 50 μL of 20 mM Tris-HCl, pH 7.2 and the bound peptide was eluted with approximately 4 μL of matrix solution (CHCA/acetonitrile/TFA) directly onto a MALDI plate. In the control experiment, extract pre-treated with buffer was used and processed as described above. Similar experiments were carried out using E. coli translation extract.

[10] = test system: rabbit reticulocyte lysate, wheat germ extract, E. coli S30 extract; details: within several minutes after incubation with the translation mixtures
Method: 100 picomoles of the synthetic R6 peptide in 1 microliter of water is added to 5 ul of a test solution and incubated for 20 minutes (or 10 minutes) at 37 degrees. 50 ul of PBS is then added to the test mixture and the resulting solution is passed over a 1 microliter anti-FLAG microcolumn (which recognizes the epitope sequence at the N terminus of the R6 peptide). The column is washed with 50 ul of deionized water and the bound peptides are eluted directly onto the maldi plate using 1 microliter of CHCA matrix in 50% acetonitrile/0.2% TFA/49.8% deionized water. The intact R6 peptide and degradation products are detected by Maldi-Tof mass spectrometry in positive ion linear mode.

Method for Amber-PURE: In order to remove the protease activity from solution B, 100 ul of solution B was added to 200 ul of deionized water and spun through a YM100 Microcon filter with a 100 kDa cut-off (Millipore, Inc) at 10,000 rpm for 5 minutes in a benchtop microfuge at room temperature. […] A 10 ul aliquot contains 3 ul of diluted and filtered solution B, 7 ul of solution A and 10 picomoles of zonally purified ribosomes.
In this example, the protease-depleted system is used to produce the reference peptide (R6) by in vitro translation using DNA coding for the R6 peptide.

For Ebelactone, the “inhibition of R6 degradation (protease activity) in rabbit reticulocyte extract” value [1] was “only weak protease inhibition”.
In the case of `NCCc1ccc(S(=O)(=O)F)cc1` [AEBSF], the “inhibition of R6 proteolysis in PURE I” value ([2]; inhibitor pre-incubated 15-30 min, R6 15 min at 37° C.) is reported as “excellent inhibition” and the “inhibition of protein synthesis” value (protein synthesis; if used together with "Pefabloc protector") is reported as “could also inhibit protein synthesis”.
With MDYKDDDDKRRRRRRFFF the not cleaved [3] was “devoid of protease activity”, the cleaved bond [4] was “Phe-Phe, minor, 1 min; also recorded: Arg-Arg, 1 min” and the cleaved bond [5] was “R-R”. The fragment found [6] was “MDYKDDDDKRRRRR, major, 15 min”.
In the case of `C[C@@H]1C[C@@H]([C@H](O)CC2CC(=O)NC(=O)C2)C(=O)[C@@H](C)C1` [cycloheximide], the “inhibition of protein synthesis” value [7] is reported as “completely inhibited”.
In the case of MYTDIEMNRLGK, the not cleaved [8] is reported as “retains complete peptide signal”.
For `CC(C)C[C@H](NC(=O)[C@@H](NC(=O)N[C@@H](Cc1ccccc1)C(=O)O)[C@@H]1CCN=C(N)N1)C(=O)N[C@H](C=O)Cc1ccccc1` [Chymostatin], the “inhibition of protease activity (R6 degradation) in E. coli translation extract” value [9] was “only weakly inhibited”.
With `CCC[C@@H](C=O)NC(=O)[C@H](CC(C)C)NC(=O)[C@H](CC(C)C)NC(=O)OCc1ccccc1` [2-LeuLeuNvaCHO] (Cbz-Leu-Leu-[Nva]-aldehyde) the “inhibition of R6 degradation (protease activity) in rabbit reticulocyte extract” value [1] was “significant reduction in protease activity”.
With aprotinin the “inhibition of protein synthesis” value (protein synthesis) was “inhibit protein synthesis” and the “inhibition of protease activity (R6 degradation) in E. coli translation extract” value [9] was “significant inhibition”.
With “R6: protease-sensitive peptide, sequence MDYKDDDDKRRRRRRFFF (SEQ ID NO:152), FLAG epitope at the N-terminus (N-terminal FLAG epitope)” the “intact peptide after incubation with PURE I mixture” value ([2]; 15 min, 37° C., no inhibitor) was “disappearance of the intact R6 peptide”, the “degradation of sub-nanomolar amounts of peptide” value [10] was “complete degradation” and the “peptide products obtained by in vitro translation” value (PURE) was “correspond to degradation products”. For the same molecule, the “peptide product obtained by in vitro translation” value (Amber-PURE) was “intact patent peptide”.
